Assay results: ChEMBL document CHEMBL1811905, “Ligand-based discovery of novel trypanosomicidal drug-like compounds: in silico identification and experimental support” (Eur J Med Chem, 2011)

How the values were obtained:
Trypanosoma cruzi [1] = test: Antitrypanosomal activity against epimastigote forms of Trypanosoma cruzi CL-B5 transfected with Escherichia coli LacZ gene at 100 ug/ml after 72 hrs by chlorophenol red-Beta-D-galactopyranoside-based assay; assay type: functional
Trypanosoma cruzi [2] = test: Antitrypanosomal activity against epimastigote forms of Trypanosoma cruzi CL-B5 transfected with Escherichia coli beta-galactosidase gene LacZ at 10 ug/ml after 72 hrs by chlorophenol red-Beta-D-galactopyranoside-based assay; assay type: functional
J774 [3] = test: Cytotoxicity against mouse J774 cells assessed as reduction in cell viability at 100 ug/ml after 24 hrs by resazurin-based colorimetric assay; conditions: j774, 24 h
Trypanosoma cruzi [4] = test: Antitrypanosomal activity against epimastigote forms of Trypanosoma cruzi CL-B5 transfected with Escherichia coli beta-galactosidase gene LacZ at 1 ug/ml after 72 hrs by chlorophenol red-Beta-D-galactopyranoside-based assay; assay type: functional
J774 [5] = test: Cytotoxicity against mouse J774 cells assessed as reduction in cell viability at 10 ug/ml after 24 hrs by resazurin-based colorimetric assay; conditions: j774, 24 h
Trypanosoma cruzi [6] = test: Antitrypanosomal activity against amastigote forms of Trypanosoma cruzi CL-B5 expressing Escherichia coli LacZ gene infected in NCTC929 fibroblasts at 1 ug/ml after 7 days by chlorophenol red-Beta-D-galactopyranoside-based assay; assay type: functional
Trypanosoma cruzi [7] = test: Antitrypanosomal activity against amastigote forms of Trypanosoma cruzi CL-B5 expressing Escherichia coli LacZ gene infected in NCTC929 fibroblasts at 100 ug/ml after 7 days by chlorophenol red-Beta-D-galactopyranoside-based assay; assay type: functional
J774 [8] = test: Cytotoxicity against mouse J774 cells assessed as reduction in cell viability at 1 ug/ml after 24 hrs by resazurin-based colorimetric assay; conditions: j774, 24 h
Trypanosoma cruzi [9] = test: Antitrypanosomal activity against amastigote forms of Trypanosoma cruzi CL-B5 expressing Escherichia coli LacZ gene infected in NCTC929 fibroblasts at 10 ug/ml after 7 days by chlorophenol red-Beta-D-galactopyranoside-based assay; assay type: functional

Row | Structure (SMILES) | Activity (Trypanosoma cruzi [1]) [%] | Activity (Trypanosoma cruzi [2]) [%] | Activity (J774 [3]) [%] | Activity (Trypanosoma cruzi [4]) [%] | Activity (J774 [5]) [%] | Activity (Trypanosoma cruzi [6]) [%] | Activity (Trypanosoma cruzi [7]) [%] | Activity (J774 [8]) [%] | Activity (Trypanosoma cruzi [9]) [%]
1 | CCOCc1ccccc1CCN1CC(=O)Nc2cc([N+](=O)[O-])ccc21 | 100 | 74.4 | 95.9 | 28.1 | 48.5 |  |  |  | 
2 | CC1CS(=O)(=O)CCN1/N=C/c1ccc([N+](=O)[O-])o1 (stereo not drawn) [NIFURTIMOX] | 98.7 | 90 | 25.9 | 75.5 | 0.6 | 88.14 | 100 | 0 | 94.44
3 | CN1C(=O)CN(CCCCCl)c2ccc([N+](=O)[O-])cc21 | 99 | 69.1 | 96.8 | 19.9 | 0 |  |  |  | 39.33
4 | CN1CC(=O)Nc2cc([N+](=O)[O-])ccc21 | 34.5 | 30.1 |  | 17.8 |  |  |  |  | 
5 | O=C1CN(CCCCCl)c2ccc([N+](=O)[O-])cc2N1 | 70.5 | 40.8 | 29 | 21 | 7.4 |  |  | 0 | 
6 | CN1C(=O)CN(CCCCCCCl)c2ccc([N+](=O)[O-])cc21 | 100 | 51.2 | 80.7 | 25.7 | 63.9 |  |  |  | 
7 | CN1C(=O)CN(CCc2ccccc2CCl)c2ccc([N+](=O)[O-])cc21 | 100 | 100 | 14.5 | 65.5 | 0 | 35.39 | 100 | 0 | 56.21
8 | O=C1CN(CCCCCCl)c2ccc([N+](=O)[O-])cc2N1 | 47.5 | 42.9 | 64.5 | 27.7 | 32.3 |  |  | 0 | 
9 | O=C1C[N+]2(CCCCC2)c2ccc([N+](=O)[O-])cc2N1.[Cl-] | 26.2 | 34 |  | 27.2 |  |  |  |  | 
10 | O=C1CN(CCc2ccccc2CCl)c2ccc([N+](=O)[O-])cc2N1 | 100 | 96.2 | 76.6 | 43.8 | 75.8 |  |  | 4.7 | 
